Values of other authors as cited in patent US20150246061A1, “VITAMIN D ANALOGUES FOR THE TREATMENT OF A NEUROLOGICAL DISORDER” (CELUS PHARMACEUTICALS, INC., priority 2012, published 2015).

Settings: adult humans, longer treatment periods

SMILES: C=C1/C(=C\C=C2/CCC[C@]3(C)C([C@@H](C)C/C=C/C(O)(CC)CC)=CC[C@@H]23)C[C@@H](O)C[C@@H]1F [Elocalcitol, elocalcitol]
- daily dose up to which elocalcitol has been shown to be safe: ≤ 150 µg
